Measurements as given in patent US20170065517A1, “COMPOSITIONS FOR […] AGENTS ACROSS THE ORAL MUCOSA AND METHODS OF USE THEREOF” (PARATEK PHARMACEUTICALS, INC., priority 2004, published 2017).

Test: Zolpidem membrane assay (lipid-coated dodecane membrane between donor and acceptor cell)
Type: in vitro ADME
Details: zolpidem tartrate solutions
Method: Topics Med. Chem., 1:277-351 (2001). This assay uses a lipid-coated membrane to predict lipid mucosal membrane penetration. The membrane apparatus consists of a dodecane membrane sandwiched between a donor and acceptor cell. The lipid-coated membrane is less porous then the mucous membrane of the oral cavity. Thus, the enhancement seen in the membrane assay is very likely to be magnified in vivo.
Membrane assays were performed using zolpidem tartrate solutions at a pH of 5.8, 6.8, and 7.8. The alkaline pH values of 7.8 were adjusted using freshly prepared 0.01 M sodium bicarbonate/sodium carbonate buffer solution. The acidic pH of 5.8 was achieved using a 0.01 M acetate buffer solution (a mixture of sodium acetate and acetic acid). The neutral pH of 6.8 was achieved by adding 0.01 M acetate solution to the sodium bicarbonate/sodium carbonate buffer solution. Permeation through the membrane was measured by determining the concentration of zolpidem in the acceptor cell and is expressed as Pc (effective permeability in centimeters per second).

Cc1ccc(-c2nc3ccc(C)cn3c2CC(=O)N(C)C)cc1 [zolpidem]
increase of effective permeability (Pc) (pH 7.8 relative to pH 5.8): 129% | increase of effective permeability (Pc) (pH 7.8 relative to pH 6.8): more than 53%
